Laboratory results taken from patent US6455593B1, “Method of dynamic retardation of cell cycle kinetics to potentiate cell damage” (priority 1995, dated 2002).

System: human promonocytic lymphoma cells (U937)
Assay: Microculture indicator system (MIS), MTT growth inhibition assay with bivariate serial dilutions
Assay type: cell-based
Conditions: for Potentiation of DNA damage by STSP as RA: U937, concentrations less than IC40, STSP as the TCI
Description: Microcultures of human promonocytic lymphoma cells (U937) (“the U937 cells”) originally obtained from the American Type Culture Collection (CRL 1593) and later grown by Dr. K. Zoon at the FDA in Bethesda, Md. were set up in a multiwell plate with serial two-fold dilutions of dThd in tissue culture growth medium (RPMI 1640 plus 10% Nurserum and antibiotics). The volume of medium per well was 100 μl and the cell number per well was about 1×10^5. The plate was incubated at 37° C. for 24 hr.
A dye, 3-[4,5-dimethylthiazol-2-yl]-2,5-diphenyl-tetrazolium bromide (MTT), was used as a chromogenic indicator of the metabolically active cell mass. Viable cells metabolize the dye and accumulate a reduced formazan product (blue color) which is solubilized for colorimetry. Mossman T, J. Immunol. Methods 5:55-63 (1983); Li L and Lau B H S, In Vitro Cell Dev. Biol. 29A:531-536 (1993). The MTT assay has been established as useful for measuring either growth inhibition or population killing. Plowman, supra. The MTT method is ideal for cells tested in suspension growth, and can also be used for some cells growing in monolayers. […] Alley, supra; Hofs, supra; Wilson J K et al., Br. J. Cancer 62:189-94 (1990); Plowman, supra.
Thirty μl of 0.5% MTT in phosphate buffered saline was added to each microculture well at the appropriate time. After incubation at 37° C. for 3 hr, 120 μl of an aqueous solution of 10 % SDS with 0.01 N HCl was added to release and dissolve formazan product. This was accomplished by overnight incubation of the plate at 37° C. After careful mixing of the microwell contents by placing the plates on an orbital shaker for 5 minutes the absorbencies were quantitated by spectrophotometry at 570 nm with a Ceres UV 900 HDI microwell plate reader (from Biotek Instruments Inc, Winooski, Vt. 05404-0998). Absorbance data was normalized to a blank well containing all reagents without cells and was collected semi-automatically.
Flat-bottom 96-well plates of tissue culture quality (Corning or Costar) were set up with two-fold serial dilutions of each agent to be tested, e.g., the RA and TCI, using a multichannel pipettor with adjustable volume, e.g., Costar or Rainin, to perform serial mixing. This set-up is diagrammed in FIG. 12. […] In each plate, a total of 59 wells then contained bivariate agent combinations, the bivariate serial dilutions.
Agents were serially diluted by serial mixing in two separate plates or series of wells, and then were combined prior to addition of a fixed volume and density of the U937 cells in a suspension calculated to deliver about 1×10^5 cells per well.
Cells were added after serial dilutions of the dThd had been dispensed. Cells were dispensed at about 10×10^4 cells per microwell to provide optimal sensitivity of detection of cell damage in subsequent calorimetric assays. […] The final volume of medium was 100 μl/well. The plates were further incubated at 37° C. for a total duration of 18-24 h. The dye MTT was used as a chromogenic indicator of the residual and metabolically active cell mass. (Described in Example 1).
In this MTT assay, normalized absorbance data was collected semi-automatically from each microculture well with a Ceres UV 900 HD1 plate reader, from Biotek Instruments Inc., Winooski, V T 05404-0998, stored in an EIA file under the Ceres 900 program, transferred in comma delimited format to a floppy diskette, and imported into a spread sheet program (Borland Quattro Pro) for data manipulations.

[1] = U937, total 17 H, STSP 17 H, dGuo 0 H, dGuo 0.01 mM (ninth dilution, c19), STSP nM by row: r7 100, r8 50, r9 25, r10 12.5, r11 6.25, r12 3.13, r13-r14 0
[2] = U937, total 17 H, STSP 17 H, dGuo 0 H, dGuo 0.01 mM (tenth dilution, c21), STSP nM by row: r7 100, r8 50, r9 25, r10 12.5, r11 6.25, r12 3.13, r13-r14 0
[3] = U937, total 17 H, STSP 17 H, dGuo 0 H, dGuo 0.02 mM, STSP nM by row: r7 100, r8 50, r9 25, r10 12.5, r11 6.25, r12 3.13, r13-r14 0
[4] = U937, total 17 H, STSP 17 H, dGuo 0 H, dGuo 0.06 mM, STSP nM by row: r7 100, r8 50, r9 25, r10 12.5, r11 6.25, r12 3.13, r13-r14 0
[5] = U937, total 17 H, STSP 17 H, dGuo 0 H, dGuo 0.09 mM, STSP nM by row: r7 100, r8 50, r9 25, r10 12.5, r11 6.25, r12 3.13, r13-r14 0
[6] = U937, total 17 H, STSP 17 H, dGuo 0 H, dGuo 3.00 mM, STSP nM by row: r7 100, r8 50, r9 25, r10 12.5, r11 6.25, r12 3.13, r13-r14 0

## COC(=O)[C@@]1(O)C[C@H]2O[C@]1(C)n1c3ccccc3c3c4c(c5c6ccccc6n2c5c31)C(=O)NC4 [K252a]
U937, K252a only 15 H, K252a uM by row: r7 2, r8 1, r9 0.5, r10 0.25, r11 0.13, r12 0.06
  combined results ratio, K252a only: 1.0
U937, K252a only 20 H, K252a nM by row: r7 625, r8 313, r9 156, r10 78.1, r11 39.1, r12 19.5
  combined results ratio, K252a only: 1.0

## CN(Cc1cnc2nc(N)nc(N)c2n1)c1ccc(C(=O)N[C@@H](CCC(=O)O)C(=O)O)cc1 [MTX, methotrexate]
Homo sapiens, U-937, U937, total 20 H, STSP 16 H, MTX 4 H, MTX 4 nM, STSP nM: 200, 100, 50, 25, 12.5, 6.25, 0
  inhibition at 0.004 µM: 20%
Homo sapiens, U-937, U937, total 20 H, STSP 16 H, MTX 4 H, MTX 8 nM, STSP nM: 200, 100, 50, 25, 12.5, 6.25, 0
  inhibition at 0.008 µM: 38%
Homo sapiens, U-937, U937, total 20 H, STSP 16 H, MTX 4 H, MTX 16 nM, STSP nM: 200, 100, 50, 25, 12.5, 6.25, 0
  inhibition at […]: 48%
Homo sapiens, U-937, U937, total 20 H, STSP 16 H, MTX 4 H, MTX 31 nM, STSP nM: 200, 100, 50, 25, 12.5, 6.25, 0
  inhibition at […]: 43%
Homo sapiens, U-937, U937, total 20 H, STSP 16 H, MTX 4 H, MTX 63 nM, STSP nM: 200, 100, 50, 25, 12.5, 6.25, 0
  inhibition at […]: 47%
Homo sapiens, U-937, U937, total 20 H, STSP 16 H, MTX 4 H, MTX 125 nM, STSP nM: 200, 100, 50, 25, 12.5, 6.25, 0
  inhibition at 0.125 µM: 52%
Homo sapiens, U-937, U937, total 20 H, STSP 16 H, MTX 4 H, MTX 250 nM, STSP nM: 200, 100, 50, 25, 12.5, 6.25, 0
  inhibition at […]: 57%
Homo sapiens, U-937, U937, total 20 H, STSP 16 H, MTX 4 H, MTX 500 nM, STSP nM: 200, 100, 50, 25, 12.5, 6.25, 0
  inhibition at 0.5 µM: 62%
Homo sapiens, U-937, U937, total 20 H, STSP 16 H, MTX 4 H, MTX 1000 nM, STSP nM: 200, 100, 50, 25, 12.5, 6.25, 0
  inhibition at 1 µM: 61%
  Potentiation of DNA damage by STSP as RA: proved successful in potentiating DNA damage by STSP
U937, total 20 H, STSP 16 H, MTX 4 H, MTX 4 nM, STSP nM: 200, 100, 50, 25, 12.5, 6.25, 0
  Combined results ratio: 1.0
U937, total 20 H, STSP 16 H, MTX 4 H, MTX 8 nM, STSP nM: 200, 100, 50, 25, 12.5, 6.25, 0
  Combined results ratio: 1.0
U937, total 20 H, STSP 16 H, MTX 4 H, MTX 16 nM, STSP nM: 200, 100, 50, 25, 12.5, 6.25, 0
  Combined results ratio: 1.0
U937, total 20 H, STSP 16 H, MTX 4 H, MTX 31 nM, STSP nM: 200, 100, 50, 25, 12.5, 6.25, 0
  Combined results ratio: 1.0
U937, total 20 H, STSP 16 H, MTX 4 H, MTX 63 nM, STSP nM: 200, 100, 50, 25, 12.5, 6.25, 0
  Combined results ratio: 1.0
U937, total 20 H, STSP 16 H, MTX 4 H, MTX 125 nM, STSP nM: 200, 100, 50, 25, 12.5, 6.25, 0
  Combined results ratio: 1.0
U937, total 20 H, STSP 16 H, MTX 4 H, MTX 250 nM, STSP nM: 200, 100, 50, 25, 12.5, 6.25, 0
  Combined results ratio: 1.0
U937, total 20 H, STSP 16 H, MTX 4 H, MTX 500 nM, STSP nM: 200, 100, 50, 25, 12.5, 6.25, 0
  Combined results ratio: 1.0
U937, total 20 H, STSP 16 H, MTX 4 H, MTX 1000 nM, STSP nM: 200, 100, 50, 25, 12.5, 6.25, 0
  Combined results ratio: 1.0

## Nc1ccn([C@@H]2O[C@H](CO)[C@@H](O)[C@@H]2O)c(=O)n1 [ara-C, 1-β-D-arabinofuranosylcytosine]
  Potentiation of DNA damage by STSP as RA: proved successful in potentiating DNA damage by STSP

## Cn1c(=O)c2c(ncn2C)n(C)c1=O [caffeine]
Caffeine 0.1-2 mM
  Interaction with STSP (differential O/S plot): strongly antagonized the action of STSP

## N.N.[Cl][Pt][Cl] [cisplatin]
U937, Cisplatin only 16 H, Cisplatin uM by row: r7 *****, r8 *****, r9 *****, r10 5.00, r11 2.50, r12 1.25
  combined results ratio, Cisplatin only: 1.0
U937, total 19 H, cisplatin 16 H, no STSP, cisplatin uM by row: r7 80, r8 40, r9 20, r10 10, r11 5, r12 2.5
  combined results ratio, Cisplatin only: 1.0

## Nc1nc2c(ncn2[C@H]2C[C@H](O)[C@@H](CO)O2)c(=O)[nH]1 [dGuo]
U937, dGuo 0.02 mM for 0 H, STSP for 17 H, total 17 H, STSP nM: 100,50,25,12.5,6.25,3.13, r13 dGuo alone
  Combined results ratio (CRR), dGuo 0.02 mM: 1.0
U937, dGuo 0.02 mM for 0 H, STSP for 17 H, total 17 H, STSP nM: 100,50,25,12.5,6.25,3.13, r14 dGuo alone
  Growth inhibition (MTT), dGuo 0.02 mM: 10%
U937, dGuo 0.06 mM for 0 H, STSP for 17 H, total 17 H, STSP nM: 100,50,25,12.5,6.25,3.13, r13 dGuo alone
  Combined results ratio (CRR), dGuo 0.06 mM: 1.0
U937, dGuo 0.06 mM for 0 H, STSP for 17 H, total 17 H, STSP nM: 100,50,25,12.5,6.25,3.13, r14 dGuo alone
  Growth inhibition (MTT), dGuo 0.06 mM: 25%
U937, dGuo 0.09 mM for 0 H, STSP for 17 H, total 17 H, STSP nM: 100,50,25,12.5,6.25,3.13, r13 dGuo alone
  Combined results ratio (CRR), dGuo 0.09 mM: 1.0
U937, dGuo 0.09 mM for 0 H, STSP for 17 H, total 17 H, STSP nM: 100,50,25,12.5,6.25,3.13, r14 dGuo alone
  Growth inhibition (MTT), dGuo 0.09 mM: 57%
U937, dGuo 3.00 mM for 0 H, STSP for 17 H, total 17 H, STSP nM: 100,50,25,12.5,6.25,3.13, r13 dGuo alone
  Combined results ratio (CRR), dGuo 3.00 mM: 1.0
U937, dGuo 3.00 mM for 0 H, STSP for 17 H, total 17 H, STSP nM: 100,50,25,12.5,6.25,3.13, r14 dGuo alone
  Growth inhibition (MTT), dGuo 3.00 mM: 93%
U937, dGuo […] for 0 H, STSP for 17 H, total 17 H, STSP nM: 100,50,25,12.5,6.25,3.13, r13 dGuo alone
  Combined results ratio (CRR), dGuo […]: 1.0
[1]
  Combined results ratio: 1.0
  Growth inhibition (MTT): 2%
[2]
  Combined results ratio: 1.0
  Growth inhibition (MTT): 2%
[3]
  Combined results ratio: 1.0
  Growth inhibition (MTT): 10%
[4]
  Combined results ratio: 1.0
  Growth inhibition (MTT): 25%
[5]
  Combined results ratio: 1.0
  Growth inhibition (MTT): 57%
[6]
  Combined results ratio: 1.0
  Growth inhibition (MTT): 93%

## O=c1[nH]c(=O)n([C@H]2C[C@H](O)[C@@H](CO)O2)cc1F [floxuridine]
  Potentiation of DNA damage by STSP as RA: proved successful in potentiating DNA damage by STSP
